Tests used:
Karpas-422 cell lines = experiment: Karpas-422 viability assay (Cell Titer-Glo, Day 8); format: cell-based; settings: Cell Titer-Glo on Day 8
Method: Karpas-422 cell lines were obtained from DSMZ (Braunschweig, Germany) and were grown in RPMI-1640 media. All media contained 10% fetal bovine serum (FBS) and 1% penicillin/streptomycin (Invitrogen). 20K cells per well were plated onto 96 well compound coated plates. Cells were split and seeded at original plating density (based on the DMSO well counts) every 4 days into plates containing fresh EZH2 inhibitors. Relative cell numbers were assessed by Cell Titer-Glo luminescent cell viability assay (Promega) on Day 8. GraphPad Prism 5 was used for curve fitting and GI50 values were reported.

PRC2 containing wt EZH2 = PRC2 containing wt EZH2 (Homo sapiens (Human), UniProt Q15910); experiment: EZH2 biochemical assay (IC50), 3H-SAM incorporation into biotinylated H3 peptide; settings: 30 pM PRC2 with wt EZH2, 3-5 h pre-incubation
Sequence of PRC2 containing wt EZH2 (Q15910 whole entry): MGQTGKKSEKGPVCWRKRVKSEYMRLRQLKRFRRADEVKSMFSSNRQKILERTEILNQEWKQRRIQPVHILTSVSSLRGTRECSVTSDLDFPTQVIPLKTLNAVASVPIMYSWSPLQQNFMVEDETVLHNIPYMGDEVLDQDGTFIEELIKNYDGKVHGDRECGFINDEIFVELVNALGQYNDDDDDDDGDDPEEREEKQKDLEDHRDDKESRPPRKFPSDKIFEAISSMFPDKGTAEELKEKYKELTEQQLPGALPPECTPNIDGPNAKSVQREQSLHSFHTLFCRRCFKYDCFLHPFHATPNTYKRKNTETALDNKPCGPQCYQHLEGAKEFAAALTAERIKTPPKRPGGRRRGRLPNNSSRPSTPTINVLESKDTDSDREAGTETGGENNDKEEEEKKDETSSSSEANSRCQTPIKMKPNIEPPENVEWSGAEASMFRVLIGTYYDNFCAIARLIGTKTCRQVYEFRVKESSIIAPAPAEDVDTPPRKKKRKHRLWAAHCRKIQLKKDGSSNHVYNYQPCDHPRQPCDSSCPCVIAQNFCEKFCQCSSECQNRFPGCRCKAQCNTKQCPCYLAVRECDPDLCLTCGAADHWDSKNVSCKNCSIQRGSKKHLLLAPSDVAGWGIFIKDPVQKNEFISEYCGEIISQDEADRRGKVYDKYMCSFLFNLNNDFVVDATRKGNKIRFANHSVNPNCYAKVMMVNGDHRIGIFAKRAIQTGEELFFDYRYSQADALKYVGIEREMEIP
Sequence of PRC2 containing wt EZH2 (O75530 whole entry partner): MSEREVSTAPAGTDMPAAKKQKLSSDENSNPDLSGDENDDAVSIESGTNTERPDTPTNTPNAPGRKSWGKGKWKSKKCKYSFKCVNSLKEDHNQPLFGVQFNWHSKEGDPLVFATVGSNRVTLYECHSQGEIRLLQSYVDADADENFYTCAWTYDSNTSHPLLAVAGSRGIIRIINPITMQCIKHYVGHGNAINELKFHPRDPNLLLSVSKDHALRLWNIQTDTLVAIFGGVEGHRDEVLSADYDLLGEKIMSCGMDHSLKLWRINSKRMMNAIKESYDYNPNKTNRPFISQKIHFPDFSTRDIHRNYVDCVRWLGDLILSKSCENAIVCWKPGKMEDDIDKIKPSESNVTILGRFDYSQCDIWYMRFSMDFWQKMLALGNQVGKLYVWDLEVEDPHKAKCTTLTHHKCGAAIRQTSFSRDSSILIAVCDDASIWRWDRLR
Sequence of PRC2 containing wt EZH2 (Q15022 whole entry partner): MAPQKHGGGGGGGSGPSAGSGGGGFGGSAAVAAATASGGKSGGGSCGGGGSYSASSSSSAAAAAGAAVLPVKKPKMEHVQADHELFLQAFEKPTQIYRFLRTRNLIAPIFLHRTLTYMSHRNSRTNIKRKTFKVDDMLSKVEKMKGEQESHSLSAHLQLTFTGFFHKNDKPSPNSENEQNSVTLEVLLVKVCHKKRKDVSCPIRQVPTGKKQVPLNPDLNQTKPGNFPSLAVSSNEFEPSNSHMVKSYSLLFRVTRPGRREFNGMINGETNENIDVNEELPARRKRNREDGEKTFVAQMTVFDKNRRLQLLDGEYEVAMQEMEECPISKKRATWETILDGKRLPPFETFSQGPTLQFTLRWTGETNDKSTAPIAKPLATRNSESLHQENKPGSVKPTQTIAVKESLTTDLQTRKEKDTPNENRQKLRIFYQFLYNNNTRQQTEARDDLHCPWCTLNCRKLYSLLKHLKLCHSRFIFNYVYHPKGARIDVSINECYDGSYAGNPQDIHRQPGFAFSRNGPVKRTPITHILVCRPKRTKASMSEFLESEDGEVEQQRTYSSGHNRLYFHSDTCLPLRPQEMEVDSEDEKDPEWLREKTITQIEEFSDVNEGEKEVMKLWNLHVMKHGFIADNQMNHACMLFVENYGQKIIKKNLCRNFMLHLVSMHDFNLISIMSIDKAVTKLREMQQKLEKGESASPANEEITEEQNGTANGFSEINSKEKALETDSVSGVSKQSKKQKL
Sequence of PRC2 containing wt EZH2 (Q09028 whole entry partner): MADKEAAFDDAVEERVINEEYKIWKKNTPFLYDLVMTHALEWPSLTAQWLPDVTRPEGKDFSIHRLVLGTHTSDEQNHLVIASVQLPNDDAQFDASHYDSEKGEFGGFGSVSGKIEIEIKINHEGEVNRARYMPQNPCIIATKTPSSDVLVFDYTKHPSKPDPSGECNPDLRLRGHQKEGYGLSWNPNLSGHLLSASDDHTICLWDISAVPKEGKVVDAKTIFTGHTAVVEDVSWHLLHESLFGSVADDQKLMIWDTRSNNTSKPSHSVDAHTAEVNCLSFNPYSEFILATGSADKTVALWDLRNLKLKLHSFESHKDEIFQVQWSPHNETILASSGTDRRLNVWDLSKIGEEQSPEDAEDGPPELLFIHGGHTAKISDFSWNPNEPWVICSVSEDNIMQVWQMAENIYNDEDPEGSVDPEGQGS
Sequence of PRC2 containing wt EZH2 (Q6ZN18 whole entry partner): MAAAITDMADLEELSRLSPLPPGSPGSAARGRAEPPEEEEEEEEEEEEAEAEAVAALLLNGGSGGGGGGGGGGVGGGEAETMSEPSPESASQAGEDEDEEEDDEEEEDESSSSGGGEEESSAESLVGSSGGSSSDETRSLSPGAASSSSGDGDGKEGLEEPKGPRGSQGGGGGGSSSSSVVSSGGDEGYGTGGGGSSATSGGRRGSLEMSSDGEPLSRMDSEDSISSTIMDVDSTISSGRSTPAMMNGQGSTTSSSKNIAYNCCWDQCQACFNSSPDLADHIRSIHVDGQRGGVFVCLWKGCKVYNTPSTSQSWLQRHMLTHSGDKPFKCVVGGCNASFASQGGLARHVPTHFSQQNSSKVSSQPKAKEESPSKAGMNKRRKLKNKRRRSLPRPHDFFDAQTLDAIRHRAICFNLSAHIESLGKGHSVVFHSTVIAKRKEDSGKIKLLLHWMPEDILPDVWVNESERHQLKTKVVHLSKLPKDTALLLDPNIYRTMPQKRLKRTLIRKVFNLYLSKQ
Method: EZH2 biochemical assay (IC50): Compound potencies were assessed through incorporation of ^3H-SAM into a biotinylated H3 peptide. Specifically, 30 pM PRC2 containing wt EZH2 (pentameric complex prepared in-house) was pre-incubated with 450 nM SAM, 450 nM ^3H-SAM, 2 μM H3K27me3 activating peptide (H2N-RKQLATKAAR(Kme3)SAPATGGVKKP-amide) and compounds (as 10 point duplicate dose response titrations in DMSO, final assay 0.8% DMSO (v/v)) for 3-5 h in 50 mM Tris (pH 8.5), 1 mM DTT, 0.07 mM Brij-35, 0.1% BSA, and 0.8% DMSO in a total volume of 12.5 μl. Reaction was initiated with biotinylated H3 substrate peptide (H2N-RKQLATKAAR(Kmel)SAPATGGVKKP-NTPEGBiot) as a 2 μM stock in 12.5 μl of buffer and allowed to react at room temperature for 18-22 h. Quenching was accomplished by addition of 20 μl of STOP solution (50 mM Tris (pH 8.5), 200 mM EDTA, 2 mM SAH). 35 μl of the quenched solution was transferred to streptavidin coated FlashPlates (PerkinElmer), incubated 1-2 h, washed, and read in a TopCount Reader (PerkinElmer). IC50s were calculated in Genedata Screener using non-linear least square four parameter fits, where the four parameters were IC50, Hill slope, pre-transitional baseline (0% INH), and post-transitional baseline (100% INH).

H3K27me3 in Hela cells = experiment: H3K27me3 Alpha Hela Assay (AlphaLISA); format: cell-based
Method: H3K27me3 Alpha Hela Assay (AlphaLISA). Ten different doses of each test compound (in a series of 3-fold dilutions) were plated in duplicate 384-well tissue culture treated plates (Catalog #6007680; Perkin Elmer, Waltham, Mass.). Hela cells grown in culture were trypsinized and counted using a Countess® cell counter (Catalog #C10281; Life Technologies, Grand Island, N.Y.). Cell were diluted to 67,000 cells per mL in10% DMEM (Catalog #10569-010 Life Technologies, Grand Island, N.Y.) and 15 μL (1,000 cells) were plated into each well using the Biotek MicroFlo™ Select Dispenser (BioTek Instruments, Inc. Vermont, USA),) of the 384-well plate. Plates were incubated at 37° C./5% CO2 for 72 hrs. One of the duplicate plates was processed for HeLa assay and the other for viability. 5 μL of Cell-Histone Lysis buffer (1×) (Catalog #AL009F1 Perkin Elmer; Waltham, Mass.) per well was added to the plate processed for AlphaLISA and the plate was incubated at RT for 30 minutes on a plate shaker with low speed (Model# 4625-Q Thermo Scientific; Waltham, Mass.). Then, 10 μL per well Histone Extraction buffer (catalog #AL009F2; Perkin Elmer; Waltham, Mass.) was added and the plate further incubated at RT for 20 min on plate shaker with low speed. Next, 10 μL of 5× mix of anti-K27me3 acceptor beads plus Biotinylated anti-Histone H3 (C-ter) Antibody (diluted to 3 nM final) (Catalog #AL118 Perkin Elmer; Waltham, Mass.) was added in each well. Dilution of the acceptor beads and anti-Histone H3 was done in 1× Histone Detection buffer (Catalog #AL009F3 Perkin Elmer; Waltham, Mass.) which was produced by diluting the 10× stock provided. The plate was sealed with an aluminum plate sealer and incubated at 23° C. for 60 min. Next, 10 μL 5× solution of Streptavidin Donor beads were added (Catalog #6760002 Perkin Elmer; Waltham, Mass.) (20 μg/mL final in 1× Histone Detection Buffer), =plate was sealed with Aluminum plate sealer and incubated at 23° C. for 30 min. The plates were then read using an EnVision-Alpha Reader (model #2104 Perkin Elmer; Waltham, Mass.). […]

[1] = Cellular permeability in MDCK assay; format: in vitro ADME; settings: dog, pH 7.4, MDCK II, with P-gp inhibitor GF120918 10 μM; for efflux ratio at 2.5 h, 2 μM: Papp(BA)/Papp(AB)
Method: Cell culture: MDCK II cells (obtained from Piet Borst at the Netherlands Cancer Institute) were seeded onto […] (PET) in 96-well BD insert systems at 2.5×10^5 cells/mL until to 4-7 days for confluent cell monolayer formation.
Experimental procedure: Test and reference compounds (nadolol, metoprolol and digoxin) were diluted with transport buffer (HBSS with 10mM Hepes, pH7.4) from stock solution to a concentration of 2 μM (<1% DMSO) and applied to the apical (A) or basolateral (B) side of the cell monolayer. Permeation of the test compounds from A to B direction or B to A direction was determined in duplicate with P-gp inhibitor (GF120918, 10 μM). Digoxin was tested at 10 μM from A to B direction or B to A direction with/without P-gp inhibitor (GF120918, 10 μM) as well, while nadolol and metoprolol were tested at 2 μM in A to B direction without P-gp inhibitor (GF120918, 10 μM) in duplicate. The plate was incubated for 2.5 hours in CO2 incubator at 37±1° C., with 5% CO2 at saturated humidity without shaking. In addition, the efflux ratio of each compound was also determined. Test and reference compounds were quantified by LC/MS/MS analysis based on the peak area ratio of analyte/IS. After transport assay, Lucifer yellow rejection assay are applied to determine the cell monolayer integrity. Buffers are removed from both apical and basolateral chambers, followed by the addition of 75 μL of 100 μM lucifer yellow in transport buffer and 250 μL transport buffer in apical and basolateral chambers, respectively. The plate is incubated for 30 minutes at 37° C. with 5% CO2 and 95% relative humidity without shaking. After 30 minutes incubation, 20 μL of lucifer yellow samples are taken from the apical sides, followed by the addition of 60 μL of Transport Buffer. And then 80 μL of lucifer yellow samples are taken from the basolateral sides. The relative fluorescence unit (RFU) of lucifer yellow is measured at 425/528 nm (excitation/emission) with a Molecular Device M2e plate reader.
Data analysis: The apparent permeability coefficient Papp (cm/s) was calculated using the equation: Papp=(dCr/dt)×Vr/(A×C0) Where dCr/dt is the cumulative concentration of compound in the receiver chamber as a function of time (μM/s); Vr is the solution volume in the receiver chamber (0.075 mL on the apical side, 0.25 mL on the basolateral side); A is the surface area for the transport, i.e. 0.0804 cm2 for the area of the monolayer; C0 is the initial concentration in the donor chamber (μM).
The efflux ratio was calculated using the equation: Efflux Ratio=Papp(BA)/Papp(AB) Percent recovery was calculated using the equation: % Recovery=100×[(Vr×Cr)+(Vd×Cd)]/(Vd×C0) Where Vd is the volume in the donor chambers (0.075 mL on the apical side, 0.25 mL on the basolateral side); Cd and Cr are the final concentrations of transport compound in donor and receiver chambers, respectively.
Percent of lucifer yellow in basolateral well is calculated using the equation:
[formula] where RFUApical and RFUBasolateral are the relative fluorescence unit values of lucifer yellow in the apical and basolateral wells, respectively; VApical and VBasolateral are the volume of apical and basolateral wells (0.075 mL and 0.25 mL), respectively. Percent lucifer yellow should be less than 2.

[2] = Homo sapiens, KARPAS-422, 192 h

| SMILES | GI50 (Karpas-422 cell lines; [2]) [nM] | IC50 (PRC2 containing wt EZH2) [nM] | EC50 (H3K27me3 in Hela cells; Homo sapiens, HeLa, 72 h) [nM] | GI50 (Karpas-422 cell lines) [nM] | EC50 (H3K27me3 in Hela cells; 72 hrs) [nM] | Papp at 2.5 h, 2 μM [1] [×10⁻⁶ cm/s] | efflux ratio at 2.5 h, 2 μM [1] |
| --- | --- | --- | --- | --- | --- | --- | --- |
| CSc1cc(Cl)[nH]c(=O)c1CNC(=O)c1cc(Cl)c2c(c1C)OC(C)(C1CCC(N3CC(OC(F)F)C3)CC1)O2 (single isomer, unassigned) [Example 2] | 250 | 1.5 | 15 |  |  |  |  |
| CSc1cc(C)[nH]c(=O)c1CNC(=O)c1cc(Cl)c2c(c1C)OC(C)(C1CCN(CC(F)(F)F)CC1)O2 (single isomer, unassigned) [Example 14-Enantiomer 1, 7-chloro-2,4-dimethyl-N-((6-methyl-4-(methylthio)-2-oxo-1,2-dihydropyridin-3-yl)methyl)-2-(1-(2,2,2-trifluoroethyl)piperidin-4-yl)benzo[d][1,3]dioxole-5-carboxamide] |  | 0.037 |  |  | 1.4 |  |  |
| CSc1cc(C)[nH]c(=O)c1CNC(=O)c1cc(Cl)c2c(c1C)OC(C)(C1CCN(CC(F)(F)F)CC1)O2 (single isomer, unassigned) [Example 14-Enantiomer 2, 7-chloro-2,4-dimethyl-N-((6-methyl-4-(methylthio)-2-oxo-1,2-dihydropyridin-3-yl)methyl)-2-(1-(2,2,2-trifluoroethyl)piperidin-4-yl)benzo[d][1,3]dioxole-5-carboxamide] |  | 7 |  |  | 210 | 13 | 0.56 |
| Cc1cc(Cl)c(CNC(=O)c2cc(Cl)c3c(c2C)OC(C)(C2CCN(CC(F)(F)F)CC2)O3)c(=O)[nH]1 (single isomer, unassigned) [Example 16-Enantiomer 1, 7-chloro-N-((4-chloro-6-methyl-2-oxo-1,2-dihydropyridin-3-yl)methyl)-2,4-dimethyl-2-(1-(2,2,2-trifluoroethyl)piperidin-4-yl)benzo[d][1,3]dioxole-5-carboxamide] |  | 0.31 |  |  | 22 |  |  |
| Cc1cc(Cl)c(CNC(=O)c2cc(Cl)c3c(c2C)OC(C)(C2CCN(CC(F)(F)F)CC2)O3)c(=O)[nH]1 (single isomer, unassigned) [Example 16-Enantiomer 2, 7-chloro-N-((4-chloro-6-methyl-2-oxo-1,2-dihydropyridin-3-yl)methyl)-2,4-dimethyl-2-(1-(2,2,2-trifluoroethyl)piperidin-4-yl)benzo[d][1,3]dioxole-5-carboxamide] |  | > 10 |  |  | > 300 |  |  |
| CSc1cc(Cl)[nH]c(=O)c1CNC(=O)c1cc(Cl)c2c(c1C)O[C@@](C)([C@H]1CC[C@H](N(C)C)CC1)O2 [Example 3, (R)-7-chloro-N-((6-chloro-4-(methylthio)-2-oxo-1,2-dihydropyridin-3-yl)methyl)-2-(trans-4-(dimethylamino)cyclohexyl)-2,4-dimethylbenzo[d][1,3]dioxole-5-carboxamide] | 29 | 0.37 | 2.4 |  |  | 3.7 | 1.2 |

More lines, now with the values ahead:

| GI50 (Karpas-422 cell lines; [2]) [nM] | IC50 (PRC2 containing wt EZH2) [nM] | EC50 (H3K27me3 in Hela cells; Homo sapiens, HeLa, 72 h) [nM] | GI50 (Karpas-422 cell lines) [nM] | EC50 (H3K27me3 in Hela cells; 72 hrs) [nM] | Papp at 2.5 h, 2 μM [1] [×10⁻⁶ cm/s] | efflux ratio at 2.5 h, 2 μM [1] | SMILES |
| --- | --- | --- | --- | --- | --- | --- | --- |
|  | 1.8 |  | 720 | 39 |  |  | CSc1cc(C)[nH]c(=O)c1CNC(=O)c1cc(Cl)c2c(c1C)OC(C)(C1CCC(NC3(C(F)(F)F)COC3)CC1)O2 (single isomer, unassigned) [Example 6-Enantiomer 1, 7-chloro-2,4-dimethyl-N-((6-methyl-4-(methylthio)-2-oxo-1,2-dihydropyridin-3-yl)methyl)-2-(4-((3-(trifluoromethyl)oxetan-3-yl)amino)cyclohexyl)benzo[d][1,3]dioxole-5-carboxamide] |
|  | 0.14 |  | 53 | 4.2 |  |  | CSc1cc(C)[nH]c(=O)c1CNC(=O)c1cc(Cl)c2c(c1C)OC(C)(C1CCC(NC3(C(F)(F)F)COC3)CC1)O2 (single isomer, unassigned) [Example 6-Enantiomer 2] |
|  | 8.6 |  |  |  |  |  | CSc1cc(C)[nH]c(=O)c1CNC(=O)c1cc(Cl)c2c(c1C)OC(C)(C1CCC(N3CC(F)(F)C3)CC1)O2 (single isomer, unassigned) [Example 7-Enantiomer 1] |
| 8.6 | 0.14 | 1.3 |  |  | 5.3 | 1.3 | CSc1cc(C)[nH]c(=O)c1CNC(=O)c1cc(Cl)c2c(c1C)OC(C)(C1CCC(NC3(CF)COC3)CC1)O2 (single isomer, unassigned) [Example 11 (geometric isomer 1)] |
|  | 0.18 |  |  | 1.7 |  |  | CSc1cc(C)[nH]c(=O)c1CNC(=O)c1cc(Cl)c2c(c1C)OC(C)(C1CCC(NC3(CF)COC3)CC1)O2 (single isomer, unassigned) [Example 11 (geometric isomer 2)] |
| 4 | 0.038 | 0.51 |  |  | 0.62 | 2.3 | CSc1cc(C)[nH]c(=O)c1CNC(=O)c1cc(Cl)c2c(c1C)O[C@@](C)([C@H]1CC[C@H](N(C)C)CC1)O2 [Example 4] |
